Here are results for 41 compounds from PubChem BioAssay (NCI).

This assay has as its system MDA-MB-468 breast. The assay can be described thus: NCI anticancer screen, dose series, 48 h.

Several values for one entry are separate records, joined by “and”; a condition that tells them apart may be missing. Identical values can stand only once.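 Compound exposure: 48 hours, 5 concentrations, 96-well plates. GI50 is the concentration that inhibits growth by half. At the TGI there is no net growth.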

In the case of `CCCCCCCCN(CCCCCCCC)CC(O)c1cc(-c2ccccc2)nc2ccc(OC)cc12` (configuration not stated), the GI50 is 39.2 µM and the TGI is above 100 µM.
For `N#C/C(=C\c1ccc[nH]1)c1cc(-c2ccc(Cl)cc2)nn1-c1ccccc1`, in that order: 0.269 µM and 2.23 µM.
In the same order, the values of `Cn1nc(C(F)(F)F)cc1-c1cc(Cl)c(OCc2ccc(Cl)cc2)c(-c2ccc(Cl)c(C(F)(F)F)c2)c1O` are 0.833 µM and 4.97 µM.
As for `CC(C)[C@@H](C(=O)O[C@@H]1/C=C/C(=O)O[C@@H](C)CCC/C=C/[C@@H]2C[C@H](O)C[C@H]21)N(C)C`, the GI50 is 1.53 µM and the TGI was found to be 6.18 µM.
For `CC(C)(C)NCC(O)c1ccccc1Cl` (configuration not stated), in that order: above 100 µM and above 100 µM.
On to `COc1ccc(C(=O)/C=C/c2ccc(OCc3cccc(C(F)(F)F)c3)c(OC)c2)cc1OC`, for which the GI50 was 107 µM and the TGI was above 1000 µM.
In the same order, the values of `Nc1nc(-c2ccc3c(c2)/C(=C\c2cc(Br)c(O)c(Br)c2)C(=O)N3)cs1` are 6.5 µM and above 22.8 µM.
As for `CN1C(=O)N(C)C2C1NC(=S)N2/N=C/C=C/c1ccccc1[N+](=O)[O-]` (configuration not stated), the GI50 is 0.431 µM and the TGI worked out at 88.2 µM.
In the same order, the values of `c1ccc2c(N=NSc3ncnc4nc[nH]c34)c3ccccc3nc2c1` are 0.549 µM and 2.34 µM.
Take `Cc1c(C(=O)Nc2ccc(N3C[C@@H](C)O[C@@H](C)C3)nc2)cccc1-c1ccc(OC(F)(F)F)cc1`: the GI50 was 3.11 µM and 5.62 µM; the TGI is 19.2 µM and 31.7 µM.
Consider `CCC[CH2][Sn]1([CH2]CCC)[O]C(=O)c2cccc([N+](=O)[O-])c2C(=O)[O]1`, for which the GI50 is 0.153 µM and the TGI stood at 0.449 µM.
For `C=CCc1c(O)c(C(=O)/C=C/c2ccc(Cl)cc2)c(OC)c2ccoc12`, the GI50 was 2.27 µM and the TGI came to 5.84 µM.
In the same order, the values of `Cc1nnc(N/N=C/c2ccc([N+](=O)[O-])o2)[nH]c1=O` are 0.749 µM and 12.2 µM.
In the same order, the values of `COc1cc2ncnc(Oc3ccc(NC(=O)Nc4ccc(CN5CCOCC5)c(C(F)(F)F)c4)c4ccccc34)c2cc1OC` are 0.249 µM and 1.85 µM.
As for `O=C1C2=C(C(=O)c3ccccc31)C(O)(S(=O)(=O)O)C(O)(S(=O)(=O)O)C1N=CC=CC21` (configuration not stated), the GI50 was 10.6 µM and 4.29 µM; the TGI is 37.5 µM and 21.2 µM.
Consider `Clc1cnc(Nc2ccc(OCCN3CCCC3)cc2)nc1NCc1ccco1`, for which the GI50 was 2.37 µM and the TGI was found to be 5.1 µM.
As for `O=C(Nc1cccc([N+](=O)[O-])c1)c1cccc(C(=O)Nc2cccc([N+](=O)[O-])c2)c1`, the GI50 was above 100 µM and the TGI is above 100 µM.
Consider `CN1CCN(Cc2ccc(NC(=O)c3cncc(C#Cc4ccc(N)nc4)c3)cc2C(F)(F)F)CC1`, for which the GI50 is 1.01 µM and the TGI came out at 4.3 µM.
For `Cc1ccc2sc3c(NCCCN)nc4ccccc4c3c(=O)c2c1`, in that order: 1.67 µM and 3.36 µM.
For `CCOP(=O)(OCC)/C(=C/n1c(=S)[nH]c2ccccc21)C(=O)OC`, in that order: above 100 µM and above 100 µM.
For the compound `COc1nn(C)cc1Nc1nccc(-c2c[nH]c3c(NC(=O)[C@@H](C)N4CCN(C)CC4)cccc23)n1`, the GI50 was 25 µM and the TGI was found to be 67.8 µM.
In the case of `NC(=Nc1ccccc1)N/N=C/c1c[nH]c2ccccc12`, the GI50 is 0.501 µM and the TGI worked out at 1.87 µM.
For the compound `COc1c(C(N)=O)cc(-c2ccc(Cl)cc2)cc1-c1ccc(S(N)(=O)=O)cc1`, the GI50 is 4.33 µM and the TGI is 11.1 µM.
As to `Cc1[nH]nc(C(F)(F)F)c1Cc1sc2c(c1C(=O)N1C[C@](C)(O)CO1)c(=O)n(C)c(=O)n2C(C)C`, the GI50 was above 100 µM and the TGI is above 100 µM.
In the case of `O=C1/C=C/[C@@H](O)[C@@H]2C[C@@H](O)C[C@H]2/C=C/CCC[C@H](CCO)O1`, the GI50 was 0.0239 µM and the TGI was found to be 0.0757 µM.
In the same order, the values of `O=C(Nc1nc2c(C(F)(F)F)cccc2s1)c1cc(Cl)ccc1O` are 0.226 µM and 0.749 µM.
Turning to `CC1Cc2c(Cl)ncnc2N(C)c2ccccc21` (configuration not stated), the GI50 is 1.6 µM and the TGI stood at 6.81 µM.
Turning to `COc1ccc2c3ccnc(C(F)(F)F)c3n(CCCCN)c2c1`, the GI50 was 3.22 µM and the TGI turned out to be 13.4 µM.
For the compound `COc1cc(OC)c(/C=C/C(=O)c2c(OC)cc(OC)cc2OC)c(OC)c1`, the GI50 was 0.7 µM and the TGI was determined as 4.55 µM.
For `Cc1cc(OCc2ccc(C(F)(F)F)cc2)c2c(c1)C(=O)C=C(NCCN1CCCC1)C2=O`, in that order: 2 µM and 4.55 µM.
For `CCOC(=O)N1CCC(N=C2CSc3nnc(-c4cc(C(F)(F)F)cc(C(F)(F)F)c4)n3N2)CC1`, in that order: 1.74 µM and 4.67 µM.
For `COC(=O)Nc1nc2ccc(C(=O)c3cccc(I)c3)cc2[nH]1`, in that order: 0.0598 µM and 2.14 µM.
In the case of `CCN1CCN(c2ccc(NC(=O)Nc3nc4ccc(-c5ccccc5OC)cc4s3)cc2)CC1`, the GI50 was 2.17 µM and the TGI was 4.03 µM.
In the same order, the values of `CCN1CCN(C(=O)[C@]23CC[C@@H](C)[C@H](C)[C@@H]2C2=CC[C@@H]4[C@@]5(C)CCC(=O)C(C)(C)[C@@H]5CC[C@@]4(C)[C@]2(C)CC3)CC1` are 0.931 µM and 2.32 µM.
In the same order, the values of `CCN(CC)CCOc1nc2ccccc2c2c1-c1ccc(OC)cc1C2=O` are 0.857 µM and 3.26 µM.
Regarding `Oc1c(C(c2ccc(F)cc2)N2CCCCC2)ccc2cncnc12` (configuration not stated), the GI50 is 0.494 µM and the TGI was 8.47 µM.
For the compound `CCC(=O)NC1=C(Cl)C(=O)C(NC(=O)CC)=C(Cl)C1=O`, the GI50 is 1.72 µM and the TGI came out at 3.66 µM.
`CC1=CC2(C)/C=C(C)/C=C\CC(O)/C=C3/C=CC(=C4C(=O)OC2(CC1C)C4=O)OC3` (configuration not stated): the GI50 was 1.18 µM and the TGI amounted to 2.85 µM.
Consider `CCOC(=O)C1=C(Nc2ccc(OC)cc2)C(N)=NC1=N`, for which the GI50 was 0.474 µM and the TGI was above 100 µM.
`Cc1ccsc1C(NC(=O)c1ccccc1)c1cc(Cl)c2cccnc2c1O` (configuration not stated): the GI50 is 0.602 µM and the TGI stood at 5.63 µM.
Regarding `C[C@@H]1CC[C@@H]2[C@@H]1[C@H](OC(=O)/C=C/C1CCCCC1)[C@]1(C3CCCCC3)C[C@@H](OC(=O)CO)[C@@]2(C)O1`, the GI50 was 13.4 µM and the TGI amounted to 27.5 µM.
